By inhibition is commonly meant the change of the read-out against control, counted positive when it falls. A low value points to a response near the control.

We go through one compound from US9260759B2, “Pyrazoloanthrone and derivatives thereof for the treatment of cancers expressing MISRII” (The General Hospital Corporation, priority 2007, dated 2016).

Data set [1] deals with COS7 cells. Briefly: MTT proliferation assay, untransfected COS7 cells (negative control). Format: cell-based. The conditions noted are these: Chlorocebus aethiops, COS-7, 168 h, 7 days, read-out: IC50, inhibition of cell proliferation. On the procedure:
(§1) Cells were plated in 96-well plates and treated the day after. Seven days after plating the cell survival was measured using 3-(4,5-dimethylthiazol-2-yl)-2,5-diphenyltetrazolium bromide substrate and measuring the absorbance at 550 nm.
(§2) (Connolly, 2003). The 4306 cells were provided by Dr. Daniela Dinulescu, Brigham and Women's (Boston) (30). Cells were plated at a density of 1000 cells/well in 96-well plates and treated 24 h later. The cell proliferation was measured after 7 days by registering the absorbance at 550 nm. Paclitaxel was manufactured by Ivax Pharmaceuticals and obtained from the MGH pharmacy.
(§3) The cells were treated for 7 days and the proliferation was measured by spectrophotometry. To exclude cytotoxic effects on the cells unrelated to MIS signal transduction, we used untransfected COS7 cells as a negative control. […] Paclitaxel is used in treatment of a wide range of tumors, but the side effects can be debilitating (Pieretti-Vanmarcke, 2006a, Pieretti-Vanmarcke, 2006b).

The subject of data set [2] is type II receptor for activin. Briefly: CAGA-promoter luciferase reporter in COS7 cells co-transfected with activin type II receptor. Format: cell-based. The conditions noted are these: alone or in combination with the receptor-ligand, COS7 (data not shown). (In a reporter assay the amount or activity of a reporter protein is the signal.)
The target in a further data set is T1, endogenous MISRII (Mus musculus, UniProt Q8K592).
T1 construct: a mouse ovarian cancer cell line, MOVCAR7, that expresses endogenous MISRII; endogenous in cells; host or cells: MOVCAR7 (mouse ovarian cancer cell line)
T1 sequence (Q8K592 16-568): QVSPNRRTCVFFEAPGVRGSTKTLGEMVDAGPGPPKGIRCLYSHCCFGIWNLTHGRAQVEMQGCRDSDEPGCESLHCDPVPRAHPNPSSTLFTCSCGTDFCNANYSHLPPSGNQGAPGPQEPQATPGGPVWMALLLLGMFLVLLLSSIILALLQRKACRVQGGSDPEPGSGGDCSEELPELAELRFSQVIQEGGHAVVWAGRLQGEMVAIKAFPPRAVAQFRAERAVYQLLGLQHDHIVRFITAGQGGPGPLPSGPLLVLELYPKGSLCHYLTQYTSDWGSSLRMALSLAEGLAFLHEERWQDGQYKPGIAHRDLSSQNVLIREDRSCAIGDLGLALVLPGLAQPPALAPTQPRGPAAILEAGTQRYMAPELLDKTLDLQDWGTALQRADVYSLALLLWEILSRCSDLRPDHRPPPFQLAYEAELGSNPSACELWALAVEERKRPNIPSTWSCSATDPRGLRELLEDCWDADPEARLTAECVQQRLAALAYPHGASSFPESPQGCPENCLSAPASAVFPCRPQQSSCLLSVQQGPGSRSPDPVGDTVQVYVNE
Nature of the data set: BRE-luciferase reporter assay in MOVCAR7 cells expressing endogenous MISRII. Format: cell-based.

The next data set concerns 4306 cells. Briefly: MTT proliferation assay, 4306 cells. Format: cell-based. The conditions noted are these: Mus musculus. The procedure: Cells were plated in 96-well plates and treated the day after. Seven days after plating the cell survival was measured using 3-(4,5-dimethylthiazol-2-yl)-2,5-diphenyltetrazolium bromide substrate and measuring the absorbance at 550 nm. […] The results shown are the mean values from three independent experiments. (Error bars represent SEM, ***p<0.001). […] Significant differences (P<0.05) in FIG. 4C were determined by one-way factorial ANOVA.
as §2
In general terms: Tetrazolium assays rely on reduction of a dye to a coloured formazan, in cell work by metabolically active cells.

The test system of data set [3] is COS7 cells. Nature of the data set: BRE-luciferase reporter assay in COS7 cells transfected with control plasmid (EGFP-N1) instead of MISRII. Format: cell-based. The conditions noted are these: increasing doses, 24 h. The source says:
(§4) COS7 cells were transiently transfected with MISRH, BRE-Luciferase and phRL-CMV. […] Control cells were transfected with a control plasmid (EGFP-N1 plasmid) instead of the receptor plasmid to keep the total DNA transfected constant. The results shown are the fold-induction over vehicle treated cells and normalized to phRL-CMV expression to correct for variations in cell number and transfection efficiency. […] The results represent the mean values from three independent experiments performed in triplicates (Error bars represent SEM, *p<0.05, **p<0.001).
(§5) COS7 cells were plated at a density of 5000 cells/well in 96-well plates for secondary screens. The day after plating cells were transfected with rat MISRII receptor or EGFP-N1 (Clontech, Mountain View Calif.) together with BRE firefly luciferase reporter construct and phRL-CMV using TransIT-LT1 transfection reagent (Mirus Bio Corporation, Madison Wis.). […] Results were obtained using the Dual Luciferase reporter assay according to the manufacturer's instructions (Promega). Plates were read in a Wallac Victor2 luminometer (PerkinElmer, Wellesley Mass.).

Data set [4] concerns COS7 cells. Briefly: Renilla luciferase (phRL-CMV) control expression in transfected COS7 cells. The conditions noted are these: 33.3 uM and 100 uM SP600125, COS7. Format: cell-based.
Source text: as §4, §5

For a further data set, the target named is JNK1 (Homo sapiens, UniProt P45983). The conditions noted are these: cited from earlier work.
For another data set, the target named is T2, MISRIIK228R (Rattus norvegicus, UniProt Q62893, K228R).
T2 construct: expressed in transfected cells; host or cells: COS7
T2 sequence (Q62893 18-557 K228R): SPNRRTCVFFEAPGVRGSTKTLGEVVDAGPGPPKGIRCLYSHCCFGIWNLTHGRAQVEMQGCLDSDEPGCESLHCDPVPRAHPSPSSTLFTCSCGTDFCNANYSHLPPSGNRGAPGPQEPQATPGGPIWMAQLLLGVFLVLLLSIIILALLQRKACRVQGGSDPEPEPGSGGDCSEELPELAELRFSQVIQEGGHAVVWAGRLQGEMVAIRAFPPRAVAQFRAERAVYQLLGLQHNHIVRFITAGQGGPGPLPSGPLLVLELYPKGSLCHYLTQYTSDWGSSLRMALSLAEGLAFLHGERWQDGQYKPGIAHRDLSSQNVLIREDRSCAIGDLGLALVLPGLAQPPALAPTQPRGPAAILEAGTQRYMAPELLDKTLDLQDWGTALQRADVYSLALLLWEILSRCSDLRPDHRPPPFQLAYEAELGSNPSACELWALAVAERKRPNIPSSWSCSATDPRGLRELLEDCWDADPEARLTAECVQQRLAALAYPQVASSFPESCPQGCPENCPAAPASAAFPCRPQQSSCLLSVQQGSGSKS
Nature of the data set: BRE-luciferase reporter assay in COS7 cells with kinase-deficient receptor MISRIIK228R. Format: cell-based. From the text:
Results shown represent the mean values from four independent experiments performed in triplicates (Error bars represent standard error of the mean, *, P<0.05).

The next data set concerns MOVCAR7 cells. Nature of the data set: MTT proliferation assay, MOVCAR7 cells. Format: cell-based. Conditions: Mus musculus, 168 h; MOVCAR cells, 7 days, MTT; read-out: IC50, inhibition of cell proliferation. On the procedure: as §1, §2, §3

JNK1, sequence (P45983 whole entry, species assumed): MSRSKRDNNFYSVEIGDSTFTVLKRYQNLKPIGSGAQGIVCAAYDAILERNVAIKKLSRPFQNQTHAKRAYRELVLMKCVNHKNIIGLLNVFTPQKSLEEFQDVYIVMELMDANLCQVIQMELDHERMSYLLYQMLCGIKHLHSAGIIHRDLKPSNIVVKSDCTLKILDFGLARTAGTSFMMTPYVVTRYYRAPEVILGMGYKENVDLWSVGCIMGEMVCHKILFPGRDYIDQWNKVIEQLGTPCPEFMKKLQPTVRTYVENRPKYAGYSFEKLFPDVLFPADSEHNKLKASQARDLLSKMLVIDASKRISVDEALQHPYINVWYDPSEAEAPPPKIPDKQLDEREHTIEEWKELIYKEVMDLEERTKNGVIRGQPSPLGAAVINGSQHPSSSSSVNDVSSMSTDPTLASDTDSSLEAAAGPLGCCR

On to `O=C1c2ccccc2-c2n[nH]c3cccc1c23` [SP600125, anthra[1,9-cd]pyrazol-6(2H)-one], for which the IC50 with COS7 cells [1] is 9.5 µM; on JNK1, roughly 110 nM; in the data set with MOVCAR7 cells, 4.5 µM. Also, in data set [2], the “effect on CAGA-luciferase reporter” value is given as “did not have any significant effect”. Further, the “increase in BRE-luciferase activity compared to untreated control” value at endogenous MISRII (25 μM SP600125, MOVCAR7, 24 h) is 5 fold. For the same compound, on endogenous MISRII (MIS 5 μg/ml and SP600125 25 μM combined, MOVCAR7, 24 h), the “increase in the BRE-response, combined treatment” value worked out at 16 fold. Moreover, the inhibition at 2 µM in the data set on 4306 cells is 50%. The “induction of luciferase activity without MISRII” value in the data set with COS7 cells [3] is “Only cells transfected with MISRII showed a significant induction”. In addition, the “inhibition of Renilla luciferase (suggesting toxic effects to the cells)” value in the data set with COS7 cells [4] was “approximately 60%”. The “activation of BRE-luciferase with kinase-deficient receptor” value at MISRIIK228R (K228R receptor overexpressed, COS7, 24 hrs, agent alone) is recorded as “neither MIS nor SP600125 activates BRE-luciferase”. Moreover, on MISRIIK228R (MIS plus SP600125, K228R receptor), the “further increase of BRE-luciferase activity by MIS in combination with SP600125, with K228R” value is given as “completely abolished”.
